“Also recorded” adds a separate entry of the source. d = 2'-deoxy (DNA); m = 2'-O-methyl
How the values were obtained:
[1] = test system: Du145 cells; assay: Growth inhibition by antisense oligos, Du145; assay type: cell-based, human; details: 50 nM, 48 hour, vs cells treated with lipofectin
Experimental: (§1) For all ex vivo oligo treatment, human A549 human […] carcinoma cells were seeded in 10 cm tissue culture dishes one day prior to oligonucleotide treatment. The cell lines were obtained from the American Type Culture Collection (ATCC) (Manassas, Va.) and were grown under the recommended culture conditions. Before the addition of the oligonucleotides, cells were washed with PBS (phosphate buffered saline). Next, lipofectin transfection reagent (GIBCO BRL Mississauga, Ontario, Calif.), at a concentration of 6.25 μg/ ml, was added to serum free OPTIMEM medium (GIBCO BRL, Rockville, Md.), which was then added to the cells. The oligonucleotides were added directly to the cells (i.e., one oligonucleotide per plate of cells). Mismatched oligonucleotides were used as controls. The same concentration of oligonucleotide (e.g., 50 nM) was used per plate of cells for each oligonucleotide tested.
(§2) In order to determine the effect of HDAC ODNs on cell growth inhibition and cell death through apoptosis, A549, T24, DuI45, HCT116 cells (ATCC, Manassas, Va.), or HMEC cells (BioWhittaker, Walkersville, Md.) were treated with HDAC ODNs as previously described.
(§3) For the cell growth inhibition analysis, human cancer or normal cells were treated with 50 nM of paired AS or MM oligos directed against human HDAC-1, HDAC-7 or HDAC-8for up to 96 hours. Cell numbers were counted every day by trypan blue exclusion. Percentage of inhibition was calculated as (100 - AS cell numbers/control cell numbers)%.

[2] = test system: human HDAC-8 mRNA; assay: HDAC-8 mRNA expression in A549 cells, Northern blot; assay type: cell-based; details: 24 hours
Experimental: (§4) To identify antisense oligodeoxynucleotides (ODN) capable of inhibiting HDAC-8 expression in human cancer cells, fourteen phosphorothioate ODNs containing sequences complementary to the 5′ or 3′ UTR of the human […] (GenBank Accession No. AF230097) were initially screened in A549 cells at 100 nM. Cells were harvested after 24 hours of treatment, and HDAC-8 RNA expression was analyzed by Northern blot analysis. […] Total RNAs were harvested and were analyzed by Northern Blot. GAPDH expression was analyzed to indicate total RNA loading in each lane.
(§5) In order to determine the dose response of HDAC7 antisense inhibitors to reduce HDAC7 message at the mRNA level, Human A549 cells were treated with 25 or 50 nM of antisense (AS1 and AS2) oligos directed against human HDAC-7 or the corresponding mismatch of AS1 (MM1) oligo or an universal mismatch (UMM) for 24 hours. […] The time dependence of HDAC7 antisense inhibitors on blocking HDAC7 gene expression at the mRNA level was analyzed by treating A549 cells with 50 nM AS1 or MM1 oligos. […] Similarly, A549 cells were treated with 25 nM or 50 nM of AS1 or AS2 oligos directed against human HDAC-8 or its MM oligo for AS2 (MM2) for 24 hours. AS-2 oligo against human HDAC8 at 50 nM was also used to treat A549 cells for 24 or 48 hours.
as §1
(§6) Cells were harvested, and total RNAs were analyzed by Northern blot analysis. Briefly, total RNA was extracted using RNeasy miniprep columns (QIAGEN Canada, Mississauga, Ontario). Ten to twenty […] of total RNA was run on a formaldehyde-containing 1% agarose gel with 0.5 M sodium phosphate (pH 7.0) as the buffer system. RNAs were then transferred to nitrocellulose membranes and hybridized with the indicated radiolabeled DNA probes. Autoradiography was performed using conventional procedures.

[3] = test system: p21 protein; assay: p21 protein expression in A549 cells; assay type: cell-based, human
[4] = test system: human HDAC-7 protein; assay: HDAC-7 protein expression in A549 cells, SDS-PAGE and antibody probing; assay type: cell-based; details: 25 or 50 nM, 48 hours (time course 24 or 48 hours)
Experimental: In order to determine whether treatment with HDAC ODNs would inhibit HDAC protein expression, human A549 cancer cells were treated with 25 or 50 nM of paired antisense or its mismatch oligos directed against human HDAC-7 for 48 hours. ODN treatment conditions were as previously described.
Cells were lysed in buffer containing 1% Triton X-100, 0.5% sodium deoxycholate, 5 mM EDTA, 25 mM Tris-HCl, pH 7.5, plus protease inhibitors. Total protein was quantified by the protein assay reagent from Bio-Rad (Hercules, Calif.). 100 ug of total protein was analyzed by SDS-PAGE. Next, total protein was transferred onto a PVDF membrane and probed with HDAC-7-specific primary antibodies.

[5] = test system: human HDAC-7 mRNA; assay: HDAC-7 mRNA expression in A549 cells, Northern blot; assay type: cell-based; details: for HDAC-7 RNA expression, initial screen: 100 nM; for HDAC-7 RNA expression, initial screen / HDAC-7 mRNA expression, dose response (FIG. 1): 24 hours; for HDAC-7 mRNA expression, dose response (FIG. 1): 25 or 50 nM
Experimental: as §4, with “oligodeoxynucleotide” for “oligodeoxynucleotides”, “HDAC-7” for “HDAC-8”, “eighteen” for “fourteen”, “AF239243)” for “AF230097)”
as §5, §1, §6

[6] = test system: A549 cells; assay: Growth inhibition by antisense oligos, A549; assay type: cell-based, human; details: 50 nM, 48 hour, vs cells treated with lipofectin
Experimental: as §1, §2, §3

[7] = biological target: HDAC-4 (Homo sapiens, UniProt P56524); assay: Enzyme inhibitory activity, HD4; assay type: biochemical
Chain of HDAC-4 (P56524 whole entry): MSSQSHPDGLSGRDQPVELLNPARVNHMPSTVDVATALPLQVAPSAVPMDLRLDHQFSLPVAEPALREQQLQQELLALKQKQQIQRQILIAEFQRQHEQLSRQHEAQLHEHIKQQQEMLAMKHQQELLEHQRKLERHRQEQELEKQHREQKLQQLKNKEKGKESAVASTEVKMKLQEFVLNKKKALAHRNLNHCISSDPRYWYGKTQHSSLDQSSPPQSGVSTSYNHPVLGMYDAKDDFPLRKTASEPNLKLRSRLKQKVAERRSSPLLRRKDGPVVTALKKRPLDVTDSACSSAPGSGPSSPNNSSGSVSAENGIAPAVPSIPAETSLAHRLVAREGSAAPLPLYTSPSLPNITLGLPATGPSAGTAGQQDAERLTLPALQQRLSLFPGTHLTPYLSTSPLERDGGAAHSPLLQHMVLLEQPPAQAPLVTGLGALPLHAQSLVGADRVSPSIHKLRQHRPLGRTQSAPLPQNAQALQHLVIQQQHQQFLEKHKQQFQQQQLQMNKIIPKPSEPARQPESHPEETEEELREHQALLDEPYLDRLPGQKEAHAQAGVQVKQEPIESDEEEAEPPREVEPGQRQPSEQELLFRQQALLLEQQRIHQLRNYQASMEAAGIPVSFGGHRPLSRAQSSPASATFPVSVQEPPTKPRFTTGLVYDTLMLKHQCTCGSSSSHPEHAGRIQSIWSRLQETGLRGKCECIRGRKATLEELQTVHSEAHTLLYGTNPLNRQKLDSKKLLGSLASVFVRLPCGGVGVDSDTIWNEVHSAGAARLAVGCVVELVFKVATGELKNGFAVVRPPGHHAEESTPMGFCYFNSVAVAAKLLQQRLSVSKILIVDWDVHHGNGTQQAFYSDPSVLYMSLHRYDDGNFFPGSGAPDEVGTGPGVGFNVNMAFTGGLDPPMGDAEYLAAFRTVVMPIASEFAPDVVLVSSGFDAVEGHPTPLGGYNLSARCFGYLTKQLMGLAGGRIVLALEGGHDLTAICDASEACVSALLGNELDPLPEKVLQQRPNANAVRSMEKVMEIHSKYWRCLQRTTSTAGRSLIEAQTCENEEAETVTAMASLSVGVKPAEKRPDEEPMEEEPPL

[8] = biological target: T1, HDAC-8 (Homo sapiens, UniProt Q9BY41); assay: Enzyme inhibitory activity, HD8; assay type: biochemical; details: read-out: IC50 HD 8
T1 sequence (Q9BY41 1-377): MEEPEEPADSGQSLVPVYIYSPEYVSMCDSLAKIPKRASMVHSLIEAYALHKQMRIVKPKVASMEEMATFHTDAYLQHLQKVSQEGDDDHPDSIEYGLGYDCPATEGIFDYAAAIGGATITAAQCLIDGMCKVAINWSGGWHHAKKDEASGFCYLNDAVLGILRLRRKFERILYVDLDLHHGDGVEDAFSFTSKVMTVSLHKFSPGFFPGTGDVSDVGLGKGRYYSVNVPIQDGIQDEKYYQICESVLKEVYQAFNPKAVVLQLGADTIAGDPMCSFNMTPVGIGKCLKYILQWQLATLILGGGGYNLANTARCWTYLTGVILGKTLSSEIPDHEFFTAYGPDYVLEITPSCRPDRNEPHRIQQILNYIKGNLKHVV

[9] = test system: colon cancer cells HCT116; assay: MTT assay, HCT116; assay type: cell-based, human; details: 72 hours; read-out: IC50 HCT 116 (MTT)
Experimental: Effects of HDAC isotype-specific small molecule inhibitors on growth inhibition of various human cancer cells (from ATCC) in vitro were determined by MTT assays. Briefly, cells seeded in 96-well plates were incubated for 72 hours at 37° C. in a 5% CO2 incubator. MTT (Sigma) was added at a final concentration of 0.5 mg/ml and incubated with the cells for 4 hours before an equal volume of solubilization buffer (50% N,N-dimethylformamide, 20% SDS, pH 4.7) was added onto cultured cells. After overnight incubation, solubilized dye was quantified by colorimetric reading at […] using a reference at 630 nM. OD values were converted to cell numbers according to a standard growth curve of the relevant cell line. The concentration which reduces cell numbers to 50% of those of DMSO-treated cells is determined as MTT IC50. In Table 4, IC50s of several HDAC7 or HDAC8 inhibitors in MTT assays in various human cancer cell lines were listed. They include colon cancer cells HCT116 and SW48, lung cancer cells A549 and H446, breast cancer cells MCF-7 and MDAmb231, a prostate cancer cell line Du145 and a bladder cancer cell line T24.

[10] = biological target: HDAC-1 (Homo sapiens, UniProt Q13547); assay: Enzyme inhibitory activity, HD1; assay type: biochemical; details: read-out: IC50 HD 1
Chain of HDAC-1 (Q13547 whole entry): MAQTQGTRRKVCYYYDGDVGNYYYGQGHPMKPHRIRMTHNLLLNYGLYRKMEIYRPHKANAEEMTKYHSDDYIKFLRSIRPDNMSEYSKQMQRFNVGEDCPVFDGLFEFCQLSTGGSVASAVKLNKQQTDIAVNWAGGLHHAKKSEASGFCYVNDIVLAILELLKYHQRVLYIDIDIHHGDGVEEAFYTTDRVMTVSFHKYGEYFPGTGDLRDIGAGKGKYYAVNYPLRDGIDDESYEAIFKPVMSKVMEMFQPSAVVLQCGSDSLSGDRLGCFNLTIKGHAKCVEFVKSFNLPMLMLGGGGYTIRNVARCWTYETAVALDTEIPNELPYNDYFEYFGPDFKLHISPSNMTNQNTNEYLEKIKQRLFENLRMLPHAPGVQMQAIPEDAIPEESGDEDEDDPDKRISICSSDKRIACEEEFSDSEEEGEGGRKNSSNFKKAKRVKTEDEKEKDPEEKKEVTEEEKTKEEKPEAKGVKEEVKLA

5′-CGCUTTCCTTGTCATTGACA-3′ (sugars from the 5' end m4 d12 m4, all phosphorothioate, methylation of C not given here) [HD3 AS1, antisense oligo, Human HDAC3 3′-UTR]
Growth Inhibition Du145 [1]: + (“+” means >35% inhibition of cell growth by antisense oligos (50 nM, 48 hour) compared to that of cells treated with lipofectin)

5′-GCAGCGGCGGCAGCACCUCC-3′ (sugars from the 5' end m4 d12 m4, all phosphorothioate, methylation of C not given here) [HD5 AS1, antisense oligo, Human HDAC5 5′-UTR]
Growth Inhibition Du145 [1]: + (“+” means >35% inhibition of cell growth by antisense oligos (50 nM, 48 hour) compared to that of cells treated with lipofectin)

5′-CUCCGGCTCCTCCATCUUCC-3′ (sugars from the 5' end m4 d12 m4, all phosphorothioate, methylation of C not given here) [HDAC8 AS1, antisense oligo, Human HDAC8 5′-UTR]
HDAC-8 mRNA expression, dose response (FIG. 5) ([2]; 25 nM or 50 nM): inhibited in a dose-dependent manner
HDAC-8 RNA expression, initial screen ([2]; 100 nM): good antisense activities

5′-CAGGCTCACTTGACAAUGGC-3′ (sugars from the 5' end m4 d12 m4, all phosphorothioate, methylation of C not given here) [HD7 AS1, antisense oligo, Human HDAC7 5′-UTR]
p21 protein expression (FIG. 2) [3]: induced
HDAC-7 protein expression (FIG. 2, FIG. 4) [4]: inhibited
HDAC-7 mRNA expression, time course (FIG. 3) ([5]; 50 nM): significantly block gene expression of human HDAC7 at the mRNA level by 24 hours
HDAC-7 RNA expression, initial screen [5]: good antisense activities
HDAC-7 mRNA expression, dose response (FIG. 1) ([5]; listed as HDAC7 AS1): can inhibit human HDAC7 expression at the mRNA level; also recorded: inhibited in a dose-dependent manner
Growth Inhibition A549 [6]: + (“+” means >35% inhibition of cell growth by antisense oligos (50 nM, 48 hour) compared to that of cells treated with lipofectin)
Growth Inhibition Du145 [1]: + (“+” means >35% inhibition of cell growth by antisense oligos (50 nM, 48 hour) compared to that of cells treated with lipofectin)

5′-CUUCAGCCAGGATGCCCACA-3′ (sugars from the 5' end m4 d12 m4, all phosphorothioate, methylation of C not given here) [HDAC7 AS2, antisense oligo, Human HDAC7 3′-UTR]
p21 protein expression (FIG. 2) [3]: induced
HDAC-7 protein expression (FIG. 2, FIG. 4) [4]: inhibited
HDAC-7 RNA expression, initial screen [5]: good antisense activities
HDAC-7 mRNA expression, dose response (FIG. 1) [5]: can inhibit human HDAC7 expression at the mRNA level; also recorded: inhibited in a dose-dependent manner

CC(C=CC(=O)NO)=CC(C)Cc1ccc(N(C)C)cc1 (stereo not shown) [Compound 4, N-Hydroxy-4,6-dimethyl-7-[(4-N,N-dimethylaminophenyl)]-2,4-heptadienamide]
IC50 [7]: > 10 µM
IC50 [8]: 400 nM
IC50 [9]: 6 µM
IC50 [10]: 2000 nM

Reference: patent US20040072770A1, “Methods for specifically inhibiting histone deacetylase-7 and 8” (priority 2002, published 2004)
